For data set [1], the system named is Escherichia coli. The data set is described as follows: Antibacterial activity against Escherichia coli NCTC 10419 assessed as bacterial growth inhibition. Format: functional.
Data set [2] deals with Escherichia coli. The data set is described as follows: In vivo antibacterial activity against Escherichia coli NCTC 10419 infected in po dosed CF-mouse assessed as bacterial growth inhibition. Format: functional, organism-based.
In data set [3] the test system is Escherichia coli. The data set is described as follows: Antibacterial activity against Escherichia coli assessed as bacterial growth inhibition measured after 18 hrs by two-fold serial dilution method. The format is functional.
Data set [4] relates to Escherichia coli. The data set is described as follows: Antibacterial activity against Escherichia coli ATCC 25922 assessed as bacterial growth inhibition. The format is functional.
Data set [5] has as its system Escherichia coli. The data set is described as follows: Antibacterial activity against Escherichia coli assessed as bacterial growth inhibition. The format is functional.
Data set [6] concerns Escherichia coli. The data set is described as follows: In vivo antibacterial activity against Escherichia coli infected in po dosed CD-1 mouse assessed as bacterial growth inhibition. The format is functional. Conditions: read-out: PD50.
Data set [7] deals with Escherichia coli. The data set is described as follows: In vivo antibacterial activity against Escherichia coli infected in sc dosed CD-1 mouse assessed as bacterial growth inhibition. Conditions: read-out: PD50. Format: functional.
Data set [8] deals with Escherichia coli. The data set is described as follows: Antibacterial activity against Escherichia coli KC-14 infected in po dosed mouse assessed as bacterial growth inhibition. The format is functional. Conditions: Escherichia coli, KC-14, po, read-out: ED50.
Data set [9] deals with Escherichia coli. The data set is described as follows: Antibacterial activity against nalidixic acid resistant Escherichia coli assessed as bacterial growth inhibition. Format: functional.
A short description of data set [10]: Acute toxicity in iv dosed mouse assessed as lethal dose. The format is organism-based. Conditions: in vivo.
The test system of data set [11] is Escherichia coli. The data set is described as follows: Potency index, ratio of clinafloxacin MIC to compound IC50 for antibacterial activity against Escherichia coli ATCC 700603. Format: functional.
Data set [12] relates to Escherichia coli. The data set is described as follows: Potency index, ratio of ciprofloxacin MIC to compound IC50 for antibacterial activity against Escherichia coli ATCC 700603. The format is functional.
The test system of data set [13] is Escherichia coli. The data set is described as follows: Potency index, ratio of chloromycin MIC to compound IC50 for antibacterial activity against Escherichia coli ATCC 700603. The format is functional.
The test system of data set [14] is Escherichia coli. The data set is described as follows: Antibacterial activity against Escherichia coli ATCC 700603 assessed as bacterial growth inhibition by agar dilution method. The format is functional. (Agar dilution tests growth on a series of plates holding different concentrations.)
Data set [15] has as its system Escherichia coli. The data set is described as follows: Potency index, ratio of norfloxacin MIC to compound IC50 for antibacterial activity against Escherichia coli ATCC 700603. The format is functional.
Data set [16] relates to Escherichia coli. The data set is described as follows: Antibacterial activity against Escherichia coli ATCC 25922 infected in iv dosed mouse assessed as bacterial growth inhibition. The format is functional.
Data set [17] has as its system Escherichia coli. The data set is described as follows: Antibacterial activity against Escherichia coli ATCC 25922 infected in iv dosed rat assessed as log reduction in bacterial count in lung homogenate at 5 mg/kg. Format: functional.
Data set [18] deals with Escherichia coli. The data set is described as follows: Antibacterial activity against drug-sensitive Escherichia coli assessed as bacterial growth inhibition. The format is functional.
The test system of data set [19] is Escherichia coli. The data set is described as follows: Antibacterial activity against Escherichia coli ATCC 8739 assessed as bacterial growth inhibition by agar dilution method. Format: functional.
The subject of data set [20] is Escherichia coli. The data set is described as follows: Antibacterial activity against Escherichia coli DC2 assessed as bacterial growth inhibition. The format is functional.
For data set [21], the system named is Escherichia coli. The data set is described as follows: Antibacterial activity against Escherichia coli DC0 assessed as bacterial growth inhibition. The format is functional.
Data set [22] deals with DNA gyrase (Escherichia coli, UniProt P0AES4+P0AES6). The data set is described as follows: Inhibition of Escherichia coli DNA gyrase. The format is protein-complex assay.
Data set [23] deals with Escherichia coli. The data set is described as follows: Antibacterial activity against Escherichia coli ES142 assessed as bacterial growth inhibition. Format: functional.
The test system of data set [24] is Escherichia coli. The data set is described as follows: Antibacterial activity against Escherichia coli H560 assessed as bacterial growth inhibition. Format: functional.
Data set [25] concerns Escherichia coli. The data set is described as follows: In vivo antibacterial activity against Escherichia coli H560 infected in sc dosed CD-1 mouse assessed as bacterial growth inhibition. The format is functional. Conditions: read-out: PD50.
The subject of data set [26] is Escherichia coli. The data set is described as follows: In vivo antibacterial activity against Escherichia coli H560 infected in po dosed CD-1 mouse assessed as bacterial growth inhibition. Format: functional. Conditions: read-out: PD50.

These results are taken from ChEMBL document CHEMBL5244219, “Recent developments of quinolone-based derivatives and their activities against Escherichia coli” (Eur J Med Chem, 2018).

In brackets after ≈: the same amount, converted by molar mass.

One may read the MIC as the smallest concentration in the dilution series that meets the test's criterion for growth inhibition. Take `COc1cc(Cc2cnc(/N=C3\C(=O)N(CN4CCN(c5cc6c(cc5F)c(=O)c(C(=O)O)cn6C5CC5)CC4)c4ccc(C)cc43)nc2N)cc(OC)c1OC`: the MIC in [1] came out at 0.0002 µg/mL (≈ 0.000257 µM). Further, in data set [2], the EC50 stood at 0.62 mg/kg.
In the case of `CC(C)(CF)n1cc(C(=O)O)c(=O)c2cc(F)c(N3CC[C@H](N)C3)cc21`, the MIC in [3] was found to be 0.002 µg/mL (≈ 0.00547 µM).
With `C[C@@H](O)[C@H]1C(=O)N2C(C(=O)O)=C(COC(=O)N3CCN(c4cc5c(cc4F)c(=O)c(C(=O)O)cn5C4CC4)CC3)S[C@H]12`, the MIC in data set [4] is at most 0.06 µg/mL.
Consider `CCn1cc(C(=O)O)c(=O)c2cc(F)c(N3CCC4(CCN(C)C4)C3)cc21` (stereo unspecified), for which the MIC in data set [5] was 0.006 µg/mL (≈ 0.0161 µM). The ED50 was determined as 3.4 mg/kg in data set [6] and 8.4 mg/kg in [7].
For orientation: LD50 means the dose expected to kill half of the subjects tested. Turning to `CN1CCN(c2c(F)cc3c(=O)c(C(=O)O)c4scc5n4c3c2OC5)CC1`, the ED50 in [8] is 1.01 mg/kg. Also, the minimum inhibitory concentration (MIC) in data set [9] turned out to be 0.2 µg/mL (≈ 0.514 µM). Moreover, the LD50 in data set [10] turned out to be 237 mg/kg.
Turning to `Cc1nc(N2CCOCC2)c([N+](=O)[O-])n1CC(O)CNC1CCN(c2c(F)cc3c(=O)c(C(=O)O)cn(C4CC4)c3c2Cl)C1` (stereo unspecified), the Ratio in data set [11], in data set [12], in data set [13] and in data set [15] was 2 throughout. Moreover, in data set [14], the MIC was 0.5 µg/mL (≈ 0.789 µM).
In the case of `CN1CCN(c2cc3c(cc2F)c(=O)c(C(=O)O)cn3-c2ccc(OP(=O)(O)O)cc2)CC1`, the ED50 in [16] amounted to 0.74 mg/kg. The “log(activity)” value in data set [17] stood at 2.
As to `O=C(O)c1cn(C2CC2)c2cc(N3CCN([C@@H]4O[C@H](CO)[C@@H](O)[C@H](O)[C@H]4O)CC3)c(F)cc2c1=O`, the MIC in data set [18] is at most 0.03 µg/mL.
Take `CCn1cc(C(=O)O)c(=O)c2cc(F)c(N3CCN(CC(=O)c4ccoc4)CC3)cc21`: in data set [19], the minimum inhibitory concentration (MIC) turned out to be 0.049 µg/mL (≈ 0.115 µM).
As a reminder, the IC50 is the concentration at which inhibition is half-maximal. For `C[C@H](N)[C@@H]1CCN(c2cc3c4c(c2)c(=O)c(C(=O)O)cn4[C@@H](C)CO3)C1`, the minimum inhibitory concentration (MIC) in [20], in [21] and in [23] was 0.063 µg/mL (≈ 0.176 µM) each time. For the same molecule, the IC50 in data set [22] was 17.9 µM.
Turning to `O=C(O)c1cn(-c2ccc(F)cc2F)c2nc(N3CCCC3)c(F)cc2c1=O`, the MIC in data set [24] was 0.025 µg/mL (≈ 0.0642 µM). For the same molecule, the ED50 turned out to be 0.2 mg/kg in [25] and 0.5 mg/kg in data set [26].
